Source: BindingDB's records for doi:10.1021/cb800120t (deCODE Chemistry Inc, 2008)

Biological target: T1, m7GpppX diphosphatase (Homo sapiens, UniProt Q96C86)
T1 sequence (Q96C86 whole entry): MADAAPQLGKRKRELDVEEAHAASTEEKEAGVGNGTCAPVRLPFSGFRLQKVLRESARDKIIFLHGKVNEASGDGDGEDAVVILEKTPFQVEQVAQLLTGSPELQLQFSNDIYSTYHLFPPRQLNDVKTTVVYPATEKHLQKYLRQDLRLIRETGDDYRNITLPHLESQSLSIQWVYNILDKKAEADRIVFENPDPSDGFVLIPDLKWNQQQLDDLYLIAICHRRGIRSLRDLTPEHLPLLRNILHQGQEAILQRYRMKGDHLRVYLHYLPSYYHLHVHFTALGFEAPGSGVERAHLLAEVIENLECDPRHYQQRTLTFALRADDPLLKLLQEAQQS
Test: Biochemical Assay
Description: In vitro biochemical assay using scavenger decapping enzyme (DcpS) as a target and cell based assay using SMN2 b-lactamase NSC-34 cell reporter gene.

Row | Structure (SMILES) | EC50 [nM] | IC50 [nM]
1 | Nc1nc(N)c2c(COc3ccccc3I)cccc2n1 [D153215] | 243 | –
2 | Nc1nc(N)c2c(OCC3CCN(CC4CCNCC4)CC3)cccc2n1 [D157554] | 921 | –
3 | Nc1nc(N)c2c(OCC3CCN(c4ccccc4Cl)CC3)cccc2n1 [D158885] | 795 | 101
4 | Nc1nc(N)c2c(OCC3CCN(CC(F)(F)F)CC3)cccc2n1 [D158963] | 223 | 23.4

Now from value to compound:

Row | EC50 [nM] | IC50 [nM] | Structure (SMILES)
5 | 2540 | 339 | CC(=O)Nc1nc(CN2CCC(COc3cccc4nc(N)nc(N)c34)CC2)cs1 [D156676]
6 | 108 | 9.38 | Cn1ccnc1CN1CCC(COc2cccc3nc(N)nc(N)c23)CC1 [D157555]
